pIC50: −log10 of the molar value. Several values for one entry are separate records, joined by “and”; a condition that tells them apart may be missing. Equal values may be shown once. Entries after “also recorded” stand apart in the source; their conditions may differ.
Experiments:
DevS201 [1] = target: T1, DevS201 (Mycobacterium tuberculosis, UniProt P9WGK3); assay: Coomassie-stained SDS-PAGE check for aggregation of sensor kinase DevS201; parameters: species or system M. tuberculosis; settings: coomassie-stained SDS-PAGE of autophosphorylation reaction
T1 sequence (P9WGK3 378-578 limits assumed): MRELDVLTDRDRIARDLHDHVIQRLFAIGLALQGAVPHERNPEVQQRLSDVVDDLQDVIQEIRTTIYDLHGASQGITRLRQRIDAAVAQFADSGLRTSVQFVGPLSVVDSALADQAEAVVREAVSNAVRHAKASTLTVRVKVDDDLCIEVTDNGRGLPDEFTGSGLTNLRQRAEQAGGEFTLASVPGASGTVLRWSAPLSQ

DevS201 [2] = target: T1, DevS201; assay: High-throughput (96-well filter retention) autophosphorylation of sensor kinase DevS201 with [γ32P]ATP; type: biochemical, M. tuberculosis; settings: for pIC50: high-throughput format, concentration course 2.5 mM to 1 μM, read-out: concentration required to cause 50% inhibition (IC50) of the autophosphorylation of DevS201
Rv2027194 [3] = target: T2, Rv2027194 (Mycobacterium tuberculosis, UniProt P9WGK1); assay: High-throughput (96-well filter retention) autophosphorylation of sensor kinase Rv2027194 with [γ32P]ATP; type: biochemical, M. tuberculosis; settings: high-throughput format, concentration course 2.5 mM to 1 μM; read-out: concentration required to cause 50% inhibition (IC50) of the autophosphorylation of Rv2027194
T2 sequence (P9WGK1 380-573 limits assumed): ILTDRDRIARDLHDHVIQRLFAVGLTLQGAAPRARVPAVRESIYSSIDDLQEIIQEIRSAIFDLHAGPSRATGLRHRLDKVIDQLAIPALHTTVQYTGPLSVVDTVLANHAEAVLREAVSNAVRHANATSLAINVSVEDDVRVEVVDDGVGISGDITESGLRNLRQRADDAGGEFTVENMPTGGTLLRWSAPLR

Rv2027194 [4] = target: T2, Rv2027194; assay: Coomassie-stained SDS-PAGE check for aggregation of sensor kinase Rv2027194; parameters: species or system M. tuberculosis; settings: coomassie-stained SDS-PAGE of autophosphorylation reaction
DevS201 [5] = target: T1, DevS201; assay: SDS-PAGE/autoradiography assay of DevS201 autophosphorylation in presence of candidate compounds; type: biochemical, M. tuberculosis; settings: 1 mM compound, 12 μM DevS201, SDS-PAGE format
Procedure: FIG. 16. Inhibition of autophosphorylation of sensor kinase DevS201 by various candidate compounds. Autoradiogram of SDS-PAGE of autophosphorylation reaction products. Lane 1, levamisole HCl; lane 2, folic acid; lane 3, gly-gly-glycine; lane 4, EGTA; lane 5, bromo-phenol blue; lane 6, HABA; lane 7, ethidium bromide; lane 8, anti-DevS antibody (1 μl); lane 9, no compound. Briefly, all the mentioned compounds (1 mM final concentration) were added to 12 μM of DevS201 in reaction buffer without ATP and incubated at RT for 30 minutes after which the reaction was initiated by addition of [γ^32P]ATP and cold ATP. The reaction contents were then incubated at 25° C. for 60 minutes and were subsequently analyzed on gel as mentioned earlier.
Utilizing this knowledge a few compounds were tested for their inhibitory activity on the autophosphorylation potential of DevS sensor kinase. These included levamisole, folic acid, glycyl glycyl glycine, ethidium bromide, bromo phenol blue, 2-4-hydroxyphenylazo benzoic acid (HABA), 2-mercapto benzimidazole etc. […]
To elaborate, 12 μM of DevS201 was incubated with the aforementioned compounds in the phosphorylation reaction buffer (50 mM Tris.HCl, pH 8.0, 50 mM KCl and 25 mM MgCl2) for 30 minutes at room temperature. […] Subsequently, the reactions were terminated and analyzed on SDS-PAGE as mentioned previously.

tubercle bacilli = settings: replicating, static and multidrug-resistant bacilli; cited from earlier work

SMILES | aggregation of sensor kinase DevS201 in presence of compound (DevS201 [1]) | pIC50 (DevS201 [2]) | pIC50 (Rv2027194 [3]) | aggregation of sensor kinase Rv2027194 in presence of compound (Rv2027194 [4]) | inhibition at 2500 µM (DevS201 [2]; in the presence of 2.5 mM, read-out: inhibition of DevS) | inhibition of the autophosphorylation of DevS201 (autoradiogram) (DevS201 [5]) | activity against tubercle bacilli (tubercle bacilli)
Sc1nc2ccccc2[nH]1 [2-MBI, 2-mercapto benzimidazole] | absence of aggregate | 3.22 to 3.40 and 3.10 to 3.52 | 3.22 to 3.40 and 3.10 to 3.52 | absence of aggregate | – | – | –
CC[n+]1c(-c2ccccc2)c2cc(N)ccc2c2ccc(N)cc21.[Br-] [EtBr, Phenanthridinium, 3,8-diamino-5-ethyl-6-phenyl-, bromide] | no aggregation; also recorded: did not cause aggregation | < 2.60 | 3.15 to 3.22 and 3.00 to 3.30 | no aggregation; also recorded: did not cause aggregation | 35% | visible inhibition | –
O=S1(=O)OC(c2cc(Br)c(O)c(Br)c2)(c2cc(Br)c(O)c(Br)c2)c2ccccc21 [BPB, 3′,3″,5′,5″-Tetrabromophenol tetrabromosulfonapthalene] | no aggregation; also recorded: did not cause aggregation | 2.77 to 2.82 | 2.77 to 2.82 | no aggregation; also recorded: did not cause aggregation | – | visible inhibition | –
O=[N+]([O-])c1cn2c(n1)OC[C@@H](OCc1ccc(OC(F)(F)F)cc1)C2 [PA-824] | – | – | – | – | – | – | activity against both replicating and static tubercle bacilli as well as multidrug-resistant bacilli

— patent US7566550B2, “Screening method for developing drugs against pathogenic microbes having two-component system” (priority 2002, dated 2009)
